Experiments:
[1] = molecular target: T1, NEP enzyme (Homo sapiens, UniProt P08473); test: In vitro enzyme inhibition assay at NEP; type: biochemical; details: fluorogenic peptide substrate; human or rat NEP not given; read-out: pIC50 for the NEP enzyme (converted)
T1 construct: purchased R&D Systems, Minneapolis, Minn; 1182-ZN
Description: The inhibitory activities of compounds at human and rat NEP and human ACE were determined using in vitro assays as described below.
Rat NEP was prepared from the kidneys of adult Sprague Dawley rats. Whole kidneys were washed in cold PBS and brought up in ice-cold lysis buffer (1% Triton X-114, 150 mM NaCl, 50 mM Tris pH 7.5; Bordier (1981) J. Biol. Chem. 256:1604-1607) in a ratio of 5 mL of buffer for every gram of kidney. Samples were homogenized using a polytron hand held tissue grinder on ice. Homogenates were centrifuged at 1000×g in a swinging bucket rotor for 5 minutes at 3° C. The pellet was resuspended in 20 mL of ice cold lysis buffer and incubated on ice for 30 minutes. […] Protein concentrations were quantitated using a BCA detection system with BSA as a standard. […]
The assays were performed in 384-well white opaque plates at room temperature using the respective fluorogenic peptides at a concentration of 10 μM in assay buffer (50 mM Tris/HCl at 25° C., 100 mM NaCl, 0.01% Tween-20, 1 μM Zn, 0.025% BSA). […] The rat NEP enzyme preparation was used at a concentration that yielded quantitative proteolysis of 3 μM of Mca-RRL within 20 minutes at room temperature.
Assays were started by adding 25 μL of enzyme to 12.5 μL of test compound at 12 concentrations (10 μM to 20 pM). […] Plates were read on a fluorometer with excitation and emission wavelengths set to 320 nm and 405 nm, respectively. […]

[2] = molecular target: T2, human AT1 receptor (Homo sapiens, UniProt P30556); test: AT1 radioligand binding assay; details: displacement of [Eu]AngII at 2 nM, membranes of CHO-K1 cells expressing human AT1 receptor; read-out: pKi at the AT1 receptor (converted)
T2 construct: expressed in transfected cells; membrane preparation
T2 sequence (P30556 1-359): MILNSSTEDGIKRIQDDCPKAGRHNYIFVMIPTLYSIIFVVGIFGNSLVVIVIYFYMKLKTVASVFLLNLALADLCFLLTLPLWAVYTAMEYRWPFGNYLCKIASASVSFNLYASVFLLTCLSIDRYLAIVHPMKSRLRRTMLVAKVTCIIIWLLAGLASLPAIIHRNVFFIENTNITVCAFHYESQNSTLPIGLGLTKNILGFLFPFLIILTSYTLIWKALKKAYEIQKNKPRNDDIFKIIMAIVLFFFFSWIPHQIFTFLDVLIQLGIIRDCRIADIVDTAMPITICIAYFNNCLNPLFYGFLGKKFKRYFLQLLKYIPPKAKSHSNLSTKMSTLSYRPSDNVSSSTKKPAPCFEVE
Description: These in vitro assays were used to assess the ability of test compounds to bind to the AT1 and the AT2 receptors.
Chinese hamster ovary (CHO-K1) derived cell lines stably expressing the cloned human AT1 or AT2 receptors, respectively, were grown in HAM's-F12 medium supplemented with 10% fetal bovine serum, 10 μg/ml penicillin/streptomycin, and 500 μg/ml geneticin in a 5% CO2 humidified incubator at 37° C. AT2 receptor expressing cells were grown in the additional presence of 100 nM PD123,319 (AT2 antagonist). When cultures reached 80-95% confluence, the cells were washed thoroughly in PBS and lifted with 5 mM EDTA. Cells were pelleted by centrifugation and snap frozen in MeOH-dry ice and stored at −80° C. until further use.
For membrane preparation, cell pellets were resuspended in lysis buffer (25 mM Tris/HCl pH 7.5 at 4° C., 1 mM EDTA, and one tablet of Complete Protease Inhibitor Cocktail Tablets with 2 mM EDTA per 50 mL buffer (Roche cat. #1697498, Roche Molecular Biochemicals, Indianapolis, Ind.)) and homogenized using a tight-fitting Dounce glass homogenizer (10 strokes) on ice. The homogenate was centrifuged at 1000×g, the supernatant was collected and centrifuged at 20,000×g. […] Protein concentration of the membrane suspension was determined by the method described in Bradford (1976) Anal Biochem. 72:248-54. […]

T1 sequence (P08473 52-750 limits assumed): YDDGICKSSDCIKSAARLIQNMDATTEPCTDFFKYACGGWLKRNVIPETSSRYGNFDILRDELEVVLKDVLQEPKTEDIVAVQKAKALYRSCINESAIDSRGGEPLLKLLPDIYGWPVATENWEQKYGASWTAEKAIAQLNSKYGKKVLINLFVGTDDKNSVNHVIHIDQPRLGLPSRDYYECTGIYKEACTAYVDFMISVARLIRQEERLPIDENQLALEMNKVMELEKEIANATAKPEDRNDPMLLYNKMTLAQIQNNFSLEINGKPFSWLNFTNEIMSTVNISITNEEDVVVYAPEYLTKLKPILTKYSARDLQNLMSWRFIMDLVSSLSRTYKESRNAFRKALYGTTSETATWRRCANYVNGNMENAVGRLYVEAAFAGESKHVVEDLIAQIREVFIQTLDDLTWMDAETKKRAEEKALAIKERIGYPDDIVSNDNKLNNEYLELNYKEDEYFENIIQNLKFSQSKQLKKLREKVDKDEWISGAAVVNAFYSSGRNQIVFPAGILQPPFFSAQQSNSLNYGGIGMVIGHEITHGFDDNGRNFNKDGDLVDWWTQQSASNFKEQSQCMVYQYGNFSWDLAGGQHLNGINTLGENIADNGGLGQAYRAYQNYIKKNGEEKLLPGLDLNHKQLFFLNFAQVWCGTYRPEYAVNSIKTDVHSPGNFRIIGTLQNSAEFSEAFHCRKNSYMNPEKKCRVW

| IC50 [1] [nM] | Ki [2] [nM] | Structure (SMILES) |
| --- | --- | --- |
| ≤ 100 | < 10 | CCCCCN(Cc1ccc(-c2ccccc2-c2nnn[nH]2)cc1)C(=O)[C@H](CC(=O)O)NC(=O)C(CS)CC(C)C (stereo partly drawn) [Example 1, (S)-3-(2-Mercaptomethyl-4-methylpentanoylamino)-N-pentyl-N-[2′1-(1H-tetrazol-5-yl)biphenyl-4-ylmethyl]succinamic Acid] |
| ≤ 100 | < 10 | CCCCCN(Cc1ccc(-c2ccccc2-c2nnn[nH]2)cc1)C(=O)N1C[C@@H](NC(=O)C(CC(C)C)C(=O)NO)C[C@H]1C(=O)O (stereo partly drawn) [Example 2, (2S,4S)-4-(2-Hydroxycarbamoyl-4-methylpentanoylamino)-1-{pentyl[2′-(1H-tetrazol-5-yl)biphenyl-4-ylmethyl]carbamoyl}pyrrolidine-2-carboxylic Acid] |

— US8236839B2, “Dual-acting antihypertensive agents” (Theravance, Inc., priority 2007, dated 2012)
